# Test results reported in patent US6552080B1, “Fungicidal compounds having a fluorovinyl-or fluoropropenyl-oxyphenyloxime moiety and process for the preparation thereof” (Korea Research Institute of Chemical Technology, priority 1999, dated 2003).
# Where two headings read alike, the source gives them in different places.
# What was measured:
# [1] = test system: Pyricularia oryzae Carvara KA301; type: in vivo; settings: Rice Blast
# Botrytis cinerae = assay: Fungicidal activity against Cucumber Gray Mold Rot (CGM) disease; type: in vivo; settings: Cucumber Gray Mold Rot; concentration 50 ppm
# Phytophthora infestans = type: in vivo; settings: Tomato Late Blight; concentration 50 ppm
# Puccinia recondita = assay: Fungicidal activity against Wheat Leaf Rust (WLR) disease; type: in vivo; settings: Wheat Leaf Rust
# Erysiphae graminis = assay: Fungicidal activity against Barley Powdery Mildew (BPM) disease; type: in vivo; settings: Barley Powdery Mildew
# Rhizoctonia solani AG-1 = assay: Fungicidal activity against Rice Sheath Blight (RSB) disease; settings: Rice Sheath Blight
SMILES,"RCV (Fungicidal Activities, C.V.) ([1]; concentration 10 ppm)","RCV (Fungicidal Activities, C.V.) ([1]; concentration 50 ppm)","CGM (Fungicidal Activities, C.V.) (Botrytis cinerae)","TLB (Fungicidal Activities, C.V.) (Phytophthora infestans)","WLR (Fungicidal Activities, C.V.) (Puccinia recondita; concentration 10 ppm)","WLR (Fungicidal Activities, C.V.) (Puccinia recondita; concentration 50 ppm)","BPM (Fungicidal Activities, C.V.) (Erysiphae graminis; concentration 10 ppm)","BPM (Fungicidal Activities, C.V.) (Erysiphae graminis; concentration 50 ppm)","RSB (Fungicidal Activities, C.V.) (Rhizoctonia solani AG-1; concentration 50 ppm)","RCV (Fungicidal Activities, C.V.) ([1]; concentration 2 ppm)","WLR (Fungicidal Activities, C.V.) (Puccinia recondita; concentration 2 ppm)","BPM (Fungicidal Activities, C.V.) (Erysiphae graminis; concentration 2 ppm)","RSB (Fungicidal Activities, C.V.) (Rhizoctonia solani AG-1; concentration 2 ppm)"
COC=C(C(=O)OC)c1ccccc1CON=C(c1cccc(OC(F)=Cc2ccc(C)cc2)c1)C(F)(F)F [Compound 85],16%,93%,7%,0%,93%,96%,92%,99%,40%,,,,
COC=C(C(=O)OC)c1ccccc1CON=C(c1cccc(OC(F)=Cc2ccc(OC)cc2)c1)C(F)(F)F [Compound 89],,80%,0%,12%,70%,96%,99%,100%,50%,,,,
COC=C(C(=O)OC)c1ccccc1CON=C(c1cccc(OC(F)=Cc2cccc(F)c2)c1)C(F)(F)F [Compound 90],,76%,9%,27%,,86%,97%,99%,35%,,,,
COC=C(C(=O)OC)c1ccccc1CON=C(c1cccc(OC(F)=Cc2ccc3c(c2)OCO3)c1)C(F)(F)F [Compound 94],100%,100%,54%,68%,96%,100%,100%,100%,60%,99%,93%,100%,
CON=C(C(=O)OC)c1ccccc1CON=C(c1cccc(OC(F)=Cc2ccccc2)c1)C(F)(F)F [Compound 102],86%,99%,23%,0%,96%,99%,100%,100%,50%,71%,94%,97%,
COC=C(C(=O)OC)c1ccccc1CON=Cc1cccc(OC(F)=C(c2cccc(C)c2)C(F)(F)F)c1 [Compound 104],75%,96%,0%,0%,93%,97%,99%,100%,45%,25%,66%,80%,
COC=C(C(=O)OC)c1ccccc1CON=Cc1cccc(OC(F)=C(c2ccc(C)cc2)C(F)(F)F)c1 [Compound 105],,0%,0%,0%,98%,100%,99%,100%,20%,,86%,98%,
COC=C(C(=O)OC)c1ccccc1CON=Cc1cccc(OC(F)=C(c2ccc(OC)cc2)C(F)(F)F)c1 [Compound 111],,0%,17%,0%,95%,98%,100%,100%,0%,,80%,95%,
COC=C(C(=O)OC)c1ccccc1CON=Cc1cccc(OC(F)=C(c2ccc(F)cc2)C(F)(F)F)c1 [Compound 113],,0%,0%,21%,98%,100%,96%,100%,20%,,86%,86%,
COC=C(C(=O)OC)c1ccccc1CON=Cc1cccc(OC(F)=C(c2cccc(Cl)c2)C(F)(F)F)c1 [Compound 116],,0%,0%,14%,96%,96%,96%,100%,15%,,53%,33%,
COC=C(C(=O)OC)c1ccccc1CON=Cc1cccc(OC(F)=C(c2ccc(Br)cc2)C(F)(F)F)c1 [Compound 118],,33%,36%,0%,98%,100%,96%,100%,30%,,91%,88%,
CON=C(C(=O)OC)c1ccccc1CON=Cc1cccc(OC(F)=C(c2ccccc2)C(F)(F)F)c1 [Compound 131],,80%,42%,4%,,100%,,100%,55%,43%,98%,76%,
CON=C(C(=O)OC)c1ccccc1CON=Cc1cccc(OC(F)=C(c2ccc(F)cc2)C(F)(F)F)c1 [Compound 135],,86%,71%,0%,,100%,,100%,61%,43%,94%,93%,20%
CNC(=O)C(=NOC)c1ccccc1CON=Cc1cccc(OC(F)=C(c2ccccc2)C(F)(F)F)c1 [Compound 139],,100%,0%,46%,,98%,,98%,20%,53%,93%,97%,10%
CNC(=O)C(=NOC)c1ccccc1CON=Cc1cccc(OC(F)=C(c2cccc(C)c2)C(F)(F)F)c1 [Compound 140],,97%,0%,0%,,100%,,86%,64%,86%,0%,,
